Earlier results as cited in patent US20160158274A1, “COMPOSITION FOR MUCOUS DISPERSION OR HYDRATION, CONTAINING POLY-r-[sequence] ACID” (BIOLEADERS CORPORATION, priority 2013, published 2016).

System: mucin
Conditions: mucin in cystic fibrosis

O=C(O)CN(CCN(CC(=O)O)CC(=O)O)CC(=O)O [EDTA]
dispersion of aggregated mucin: assist in dispersion of mucin
